Source: PubChem BioAssay AID256 (DTP/NCI, 2004)
Toxic doses and inconclusive results are not listed. How the source made its calls: active means survival T/C of 150% or more; inactive means T/C below 125% in these data.

Test system: CD2F1 mice, L1210 leukemia ip, survival T/C
Test: NCI In Vivo Anticancer Drug Screen. Data for tumor model L1210 Leukemia (intraperitoneal) in CD2F1 (CDF1) mice
Details: endpoint: mean survival time, higher = longer survival
Procedure, shortened: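 Ratio T/C, where T is the treated-group value and C the vehicle-dosed control value, from mice implanted with a transplantable tumor.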

[1] = dose: 100.0 mg/kg/injection, schedule: Q01DX001 (ip), vehicle: saline with Tween-80
[2] = dose: 200.0 mg/kg/injection, schedule: Q01DX001 (ip), vehicle: saline with Tween-80
[3] = dose: 400.0 mg/kg/injection, schedule: Q01DX001 (ip), vehicle: saline with Tween-80
[4] = dose: 100.0 mg/kg/injection, schedule: Q04DX003 (ip), vehicle: saline with Tween-80
[5] = dose: 200.0 mg/kg/injection, schedule: Q04DX003 (ip), vehicle: saline with Tween-80
[6] = dose: 400.0 mg/kg/injection, schedule: Q04DX003 (ip), vehicle: saline with Tween-80

Measured: T/C

CCCC(N(C)C)P(=O)(O)O (stereo not given)
inactive: dose: 100.0 mg/kg/injection, schedule: Q04DX003 (ip), vehicle: saline 95 % of control | dose: 200.0 mg/kg/injection, schedule: Q04DX003 (ip), vehicle: saline 101 % of control | dose: 400.0 mg/kg/injection, schedule: Q04DX003 (ip), vehicle: saline 101 % of control

CN(C)[C@@H]1C(=O)C(C(N)=O)=C(O)[C@]2(O)C(=O)C3C(=O)c4c(O)ccc(Cl)c4[C@](C)(O)[C@H]3C[C@@H]12 (stereo not given in full)
inactive: dose: 50.0 mg/kg/injection, schedule: Q01DX009 (ip), vehicle: Klucel (hydroxypropylcellulose) (HPC) 107 % of control | dose: 100.0 mg/kg/injection, schedule: Q01DX009 (ip), vehicle: Klucel (hydroxypropylcellulose) (HPC) 118 % of control | dose: 225.0 mg/kg/injection, schedule: Q01DX009 (ip), vehicle: acetone 101 % of control

O=C(Nc1cc(Cl)c(Cl)cc1Cl)Nc1cc(Cl)ccc1Oc1ccc(Cl)cc1S(=O)(=O)O
inactive: [1] 96 % of control | [2] 98 % of control

CCC(=O)O[C@H]1CC[C@H]2[C@@H]3[C@@H](C)CC4=CC(=O)CC[C@]4(C)[C@H]3CC[C@]12C
inactive: [1] 91 % of control | [2] 94 % of control | [3] 94 % of control

CC(=O)Nc1cc([N+](=O)[O-])cc([N+](=O)[O-])c1O
inactive: [1] 101 % of control | [2] 98 % of control

Cc1ccc(C)c(Br)c1C
inactive: dose: 100.0 mg/kg/injection, schedule: Q01DX005 (ip), vehicle: saline with Tween-80 97 % of control | dose: 200.0 mg/kg/injection, schedule: Q01DX005 (ip), vehicle: saline with Tween-80 101 % of control | dose: 400.0 mg/kg/injection, schedule: Q01DX005 (ip), vehicle: saline with Tween-80 97 % of control

O=[N+]([O-])c1ccc(Cl)c2ncccc12
inactive: [4] 101 % of control | [5] 104 % of control

CCOC(=O)CCC(NC(=O)c1cccc(N(C)C=O)c1)C(=O)OCC (stereo not given)
inactive: [1] 110 % of control | [4] 100 % of control | [2] 110 % of control | [5] 100 % of control | [3] 113 % of control | [6] 98 % of control

O=C(O)C(Cl)(Br)C(Cl)c1ccccc1 (stereo not given)
inactive: [4] 100 % of control | [5] 102 % of control | [6] 103 % of control

COC(=O)c1ccc(C)cc1C(=O)OC
inactive: [4] 97 % of control | [5] 92 % of control

CCOC(=O)N1C2CC(C3C2N3S(=O)(=O)c2ccccc2)N1C(=O)OCC (stereo not given)
inactive: [4] 104 % of control | [5] 103 % of control | [6] 90 % of control

CN=NNc1ccc(C(N)=O)cc1
inactive: dose: 18.75 mg/kg/injection, schedule: Q01DX009 (ip), vehicle: saline 100 % of control | dose: 37.5 mg/kg/injection, schedule: Q01DX009 (ip), vehicle: saline 109 % of control | dose: 75.0 mg/kg/injection, schedule: Q01DX009 (ip), vehicle: saline 101 % of control | dose: 150.0 mg/kg/injection, schedule: Q01DX009 (ip), vehicle: saline 96 % of control | dose: 300.0 mg/kg/injection, schedule: Q01DX009 (ip), vehicle: saline 100 % of control

COc1ccc2[nH]c(=O)c3c(c2c1)CCC(OC(=O)c1ccccc1)C3 (stereo not given)
inactive: dose: 12.5 mg/kg/injection, schedule: Q01DX009 (ip), vehicle: saline 104 % of control | dose: 18.8 mg/kg/injection, schedule: Q04DX003 (ip), vehicle: saline 104 % of control | dose: 25.0 mg/kg/injection, schedule: Q01DX009 (ip), vehicle: saline 97 % of control | dose: 37.5 mg/kg/injection, schedule: Q04DX003 (ip), vehicle: saline 101 % of control | dose: 50.0 mg/kg/injection, schedule: Q01DX009 (ip), vehicle: saline 98 % of control | dose: 75.0 mg/kg/injection, schedule: Q04DX003 (ip), vehicle: saline 97 % of control

N#CCCCCN=[N+]=[N-]
inactive: dose: 75.0 mg/kg/injection, schedule: Q01DX001 (ip), vehicle: saline 97 % of control | dose: 150.0 mg/kg/injection, schedule: Q01DX001 (ip), vehicle: saline 103 % of control
